The values below are quoted from earlier work in PubChem BioAssay AID1259409 (Chemical Carcinogenesis Research Information System (CCRIS), 2018).

“And” between values parts separate entries of the source, which are not always exact repeats. Identical values can stand only once.

This series deals with rodent chemically induced tumor inhibition, incidence and multiplicity. Kind of series: CCRIS tumor inhibitor studies.

On to `CCCCOC(=O)c1ccccc1C(=O)OCc1ccccc1`, for which the “tumour outcome (control, treated, inhibition, significance)” value is listed as 82%, 52%, 37%, p<0.05 (Carcinogen: 7,12-DIMETHYLBENZ[A]ANTHRACENE, 57-97-6, Dose [Inhibitor]: 0, 250 MG/KG IN CORN OIL 1/D FOR 7 D PRIOR TO CARCINOGEN DOSE (STUDY DURATION: 16 WK), Route [Inhibitor]: GAVAGE, Species: RAT, Strain/Sex: ?/FEMALE, Target Tissue: Type of Lesion: MAMMARY GLAND: TUMOR, Dose [Carcinogen]: 31 MG/KG IN CORN OIL ONCE, Promoter: NONE USED) and 82%, 52%, 37%, p<0.05 (Carcinogen: 7,12-DIMETHYLBENZ[A]ANTHRACENE, 57-97-6, Dose [Inhibitor]: 0, 500 MG/KG IN CORN OIL 1/D FOR 7 D PRIOR TO CARCINOGEN DOSE (STUDY DURATION: 16 WK), Route [Inhibitor]: GAVAGE, Species: RAT, Strain/Sex: ?/FEMALE, Target Tissue: Type of Lesion: MAMMARY GLAND: TUMOR, Dose [Carcinogen]: 31 MG/KG IN CORN OIL ONCE, Promoter: NONE USED).

As to `CCCCC[C@H](O)/C=C/[C@@H]1[C@@H](C/C=C\CCCC(=O)O)[C@@H](O)C[C@H]1O`, the “tumour outcome (control, treated, inhibition, significance)” value is, setting by setting: (Carcinogen: ETHYL METHANESULFONATE, 62-50-0, Dose [Inhibitor]: 0, 1 MG/KG IN SESAME OIL 2/WK FOR 8 WK ADMINISTERED CONCOMITANTLY WITH CARCINOGEN TREATMENT (STUDY DURATION: 44 WK), Route [Inhibitor]: INTRAMUSCULAR, Species: RAT, Strain/Sex: WISTAR/FEMALE, Target Tissue: Type of Lesion: MAMMARY GLAND: CARCINOMA, Dose [Carcinogen]: 0.001 MOLAR SOLUTION IN TAP WATER FOR 12 WK, Promoter: NONE USED) 100%, 61%, 39%, p<0.01; (Carcinogen: ETHYL METHANESULFONATE, 62-50-0, Dose [Inhibitor]: 0, 1 MG/KG IN SESAME OIL 2/WK FOR 8 WK BEGINNING POST CARCINOGEN TREATMENT (STUDY DURATION: 44 WK), Route [Inhibitor]: INTRAMUSCULAR, Species: RAT, Strain/Sex: WISTAR/FEMALE, Target Tissue: Type of Lesion: MAMMARY GLAND: CARCINOMA, Dose [Carcinogen]: 0.001 MOLAR SOLUTION IN TAP WATER FOR 12 WK, Promoter: NONE USED) 100%, 88%, 12%, not significant.

Take `CCCC(=O)O`: the “tumour outcome (control, treated, inhibition, significance)” value is 10/26 (38%), 4/20 (20%), 47%, not significant (Carcinogen: 7,12-DIMETHYLBENZ[A]ANTHRACENE, 57-97-6, Dose [Inhibitor]: 0, 6% IN BASAL DIET BEGINNING 1 WK PRIOR TO CARCINOGEN DOSE AND CONTINUING FOR DURATION OF STUDY (STUDY DURATION: >15 WK, Route [Inhibitor]: ORAL, Species: RAT, Strain/Sex: SPRAGUE-DAWLEY/FEMALE, Target Tissue: Type of Lesion: MAMMARY GLAND: ADENOCARCINOMA, Dose [Carcinogen]: 5 MG IN 0.5 ML CORN OIL ONCE, Promoter: NONE USED); 11/26 (42%), 8/20 (40%), 5%, not significant (Carcinogen: 7,12-DIMETHYLBENZ[A]ANTHRACENE, 57-97-6, Dose [Inhibitor]: 0, 6% IN BASAL DIET BEGINNING 1 WK PRIOR TO CARCINOGEN DOSE AND CONTINUING FOR DURATION OF STUDY (STUDY DURATION: >15 WK, Route [Inhibitor]: ORAL, Species: RAT, Strain/Sex: SPRAGUE-DAWLEY/FEMALE, Target Tissue: Type of Lesion: MAMMARY GLAND: CARCINOMA, Dose [Carcinogen]: 5 MG IN 0.5 ML CORN OIL ONCE, Promoter: NONE USED); 14/19 (74%), 8/20 (40%), 46%, p<0.05 (Carcinogen: 7,12-DIMETHYLBENZ[A]ANTHRACENE, 57-97-6, Dose [Inhibitor]: 0, 6% IN DIET CONTAINING 20% SAFFLOWER MARGARINE BEGINNING 1 WK PRIOR TO CARCINOGEN DOSE AND CONTINUING FOR DURATION OF, Route [Inhibitor]: ORAL, Species: RAT, Strain/Sex: SPRAGUE-DAWLEY/FEMALE, Target Tissue: Type of Lesion: MAMMARY GLAND: ADENOCARCINOMA, Dose [Carcinogen]: 5 MG IN 0.5 ML CORN OIL ONCE, Promoter: NONE USED); 16/19 (84%), 11/20 (55%), 35%, p<0.05 (Carcinogen: 7,12-DIMETHYLBENZ[A]ANTHRACENE, 57-97-6, Dose [Inhibitor]: 0, 6% IN DIET CONTAINING 20% SAFFLOWER MARGARINE BEGINNING 1 WK PRIOR TO CARCINOGEN DOSE AND CONTINUING FOR DURATION OF, Route [Inhibitor]: ORAL, Species: RAT, Strain/Sex: SPRAGUE-DAWLEY/FEMALE, Target Tissue: Type of Lesion: MAMMARY GLAND: CARCINOMA, Dose [Carcinogen]: 5 MG IN 0.5 ML CORN OIL ONCE, Promoter: NONE USED).

For `O=C(O)c1cc(O)c(O)c(O)c1`, the “tumour outcome (control, treated, inhibition, significance)” value was 39%, 3%, 92%, not calculated (Carcinogen: 7,12-DIMETHYLBENZ[A]ANTHRACENE, 57-97-6, Dose [Inhibitor]: 0, 12 MG 2/WK FOR 30 WK APPLIED 20 MIN PRIOR TO EACH PROMOTER DOSE (STUDY DURATION: 32 WK), Route [Inhibitor]: DERMAL, Species: MOUSE, Strain/Sex: SENCAR/FEMALE, Target Tissue: Type of Lesion: SKIN: PAPILLOMA, Dose [Carcinogen]: 25 NMOL ONCE, Promoter: M-CHLOROPEROXYBENZOIC ACID, 937-14-4); 67%, 28%, 58%, p<0.005 (Carcinogen: 7,12-DIMETHYLBENZ[A]ANTHRACENE, 57-97-6, Dose [Inhibitor]: 0, 20 UMOL IN 0.4 ML ACETONE 20 MIN PRIOR TO EACH PROMOTER DOSE (STUDY DURATION: 47 WK), Route [Inhibitor]: DERMAL, Species: MOUSE, Strain/Sex: CF-1/FEMALE, Target Tissue: Type of Lesion: SKIN: CARCINOMA, Dose [Carcinogen]: 100 NMOL IN 0.2 ML ACETONE ONCE); 94%, 80%, 15%, not calculated (Carcinogen: 7,12-DIMETHYLBENZ[A]ANTHRACENE, 57-97-6, Dose [Inhibitor]: 0, 20 UMOL IN 0.4 ML ACETONE 20 MIN PRIOR TO EACH PROMOTER DOSE (STUDY DURATION: 47 WK), Route [Inhibitor]: DERMAL, Species: MOUSE, Strain/Sex: CF-1/FEMALE, Target Tissue: Type of Lesion: SKIN: PAPILLOMA, Dose [Carcinogen]: 100 NMOL IN 0.2 ML ACETONE ONCE); 15/50 (30%), 15/50 (30%), 0%, not significant (Carcinogen: BENZO[A]PYRENE, 50-32-8, Dose [Inhibitor]: 1% AQUEOUS SOLUTION 3/WK FOR A TOTAL OF 80 APPLICATIONS BEGINNING POST CARCINOGEN DOSE (STUDY DURATION: 567-580 D), Route [Inhibitor]: DERMAL, Species: MOUSE, Strain/Sex: CD-1/MALE, FEMALE, Target Tissue: Type of Lesion: SKIN: TUMOR, Dose [Carcinogen]: 0.53-0.6 MG ONCE, Promoter: NONE USED).

Regarding `CC(=O)O[C@H]1CC(C)(C)C(=C=C/C(C)=C/C=C/C(C)=C/C=C/C=C(C)/C=C/C=C(\C)C(=O)C[C@@]23O[C@]2(C)C[C@@H](O)CC3(C)C)[C@](C)(O)C1`, the “tumour outcome (control, treated, inhibition, significance)” value (Carcinogen: N-ETHYL-N'-NITRO-N-NITROSOGUANIDINE, 70-25-7, Dose [Inhibitor]: 0, 0.005% IN DRINKING WATER (DISSOLVED IN 50 MG/ML DMSO) FOR 4 WK BEGINNING POST CARCINOGEN TREATMENT FOLLOWED BY 12 WK, Route [Inhibitor]: ORAL, Species: MOUSE, Strain/Sex: C57BL/MALE, Target Tissue: Type of Lesion: DUODENUM: TUMORS, Dose [Carcinogen]: 100 MG/L IN DRINKING WATER AD LIBITUM FOR 4 WK, Promoter: NONE USED) was 14/28 (78%), 13/20 (65%), 17%, not significant; the “tumour outcome (control, treated, inhibition, significance)” value (Carcinogen: N-ETHYL-N'-NITRO-N-NITROSOGUANIDINE, 70-25-7, Dose [Inhibitor]: 0, 0.005% IN DRINKING WATER (DISSOLVED IN 50 MG/ML DMSO) FOR 16 WK BEGINNING POST CARCINOGEN TREATMENT (STUDY DURATION:, Route [Inhibitor]: ORAL, Species: MOUSE, Strain/Sex: C57BL/MALE, Target Tissue: Type of Lesion: DUODENUM: TUMORS, Dose [Carcinogen]: 100 MG/L IN DRINKING WATER AD LIBITUM FOR 4 WK, Promoter: NONE USED) is 14/21 (67%), 7/20 (35%), 48%, p<0.05 and 14/28 (78%), 6/20 (30%), 62%, p<0.005; the “tumour outcome (control, treated, inhibition, significance)” value (Carcinogen: N-ETHYL-N'-NITRO-N-NITROSOGUANIDINE, 4245-77-6, Dose [Inhibitor]: 0, 0.005% IN DRINKING WATER BEGINNING POST CARCINOGEN TREATMENT AND CONTINUING FOR 16 WK (STUDY DURATION: 20 WK), Route [Inhibitor]: ORAL, Species: MOUSE, Strain/Sex: C57BL/MALE, Target Tissue: Type of Lesion: DUODENUM: TUMOR, Dose [Carcinogen]: 100 MG/L DRINKING WATER FOR 4 WK, Promoter: NONE USED) was 14/21 (67%), 7/20 (35%), 48%, p<0.05.
